Read-outs that look alike come from different tables or passages of the source.
Experiments:
[1] = test system: cancer cell lines classified IM, MSL, M; assay: PRISM screen compound sensitivity correlated with IM, MSL and M subtype of cell lines (101 gene signature); assay type: cell-based; details: for TNBCType train: 101 gene signature
[2] = test system: cancer cell lines, DetermaIO classes; assay: Association of PRISM compound sensitivity with DetermaIO (DTIO) cell line classes; assay type: cell-based
[3] = correlation of PRISM compound sensitivity with IM subtype correlation, test cell set (188 cell lines)
[4] = correlation of PRISM compound sensitivity with M subtype correlation, test cell set (188 cell lines)
[5] = correlation of PRISM compound sensitivity with MSL subtype correlation, test cell set (188 cell lines)
[6] = subtype (IM, MSL or M) with which compound sensitivity is negatively correlated, training cell set (371 cell lines)
[7] = correlation of PRISM compound sensitivity with DTIO; test cell set
[8] = correlation of PRISM compound sensitivity with DTIO; training cell set
[9] = correlation of PRISM compound sensitivity with IM subtype correlation, test cell set
[10] = correlation of PRISM compound sensitivity with M subtype correlation, test cell set
[11] = correlation of PRISM compound sensitivity with MSL subtype correlation, test cell set
[12] = correlation of PRISM compound sensitivity with DTIO (DetermaIO); test cell set (188 cell lines)
[13] = correlation of PRISM compound sensitivity with DTIO (DetermaIO); training cell set (371 cell lines)
[14] = correlation of compound sensitivity with DTIO; test set
[15] = correlation of compound sensitivity with DTIO; training set
[16] = subtype (IM, MSL or M) with which PRISM compound sensitivity is negatively correlated, training cell set

Compound	IM Corr test [1, 3]	M Corr test [1, 4]	MSL Corr test [1, 5]	DTIO Corr test [2, 7]	DTIO Corr train [2, 8]	IM Corr test [1, 9]	M Corr test [1, 10]	MSL Corr test [1, 11]	also measured
CCC(O)(c1ccccc1)c1cccc(C(F)(F)F)c1 (stereo not shown) [flumecinol]	0.06404	−0.06491	−0.09398	0.03786	0.02706				TNBCType train [1, 6]: MSL
COc1ccccc1N1CCN(CCCCN2C(=O)CCC2=O)CC1 [MM77]				−0.06165	−0.1241	−0.07111	0.07806	0.009431	
O=C1/C(=C/c2ccccc2)C[C@@]2(O)[C@H]3Cc4ccc(O)c5c4[C@@]2(CCN3CC2CC2)[C@H]1O5 [BNTX]	−0.1371	0.09323	0.1062	−0.1085	−0.1416				
COc1cc2ncnc(Nc3cccc(Cl)c3)c2cc1OC [tyrphostin-AG-1478]	−0.09525	0.2259	0.3434						DTIO Corr test [2, 12]: 0.02894; DTIO Corr train [2, 13]: −0.0761
CCCCC/C=C\C=C\CCCCCCCCC(=O)O				−0.07628	−0.1009	−0.1138	0.05243	0.00293	
Cc1cccc(-c2[nH]c(C(C)(C)C)nc2-c2ccc3c(c2)OCO3)n1 [SB-505124]				0.1683	0.2562	0.2475	−0.1987	−0.01627	DTIO Corr test ([2]; correlation of compound sensitivity with DetermaIO (DTIO), test set): 0.1683; DTIO Corr train ([2]; correlation of compound sensitivity with DetermaIO (DTIO), training set): 0.2562
CC(C)(O)CC(=O)NCCn1ccc2ncnc(Nc3ccc(Oc4cccc(C(F)(F)F)c4)c(Cl)c3)c21 [TAK-285]	−0.1598	0.2221	0.1785						DTIO Corr test [2, 12]: −0.06872; DTIO Corr train [2, 13]: −0.07158; DTIO Corr test [2, 14]: −0.06872; DTIO Corr train [2, 15]: −0.07158
C[C@H](C[C@H](N)C(=O)O)C(=O)O [SYM-2081]	−0.08842	0.01603	0.05746						DTIO Corr test [2, 12]: −0.1311; DTIO Corr train [2, 13]: −0.0674
CN[C@@H](C)[C@H]1[C@H](O)C[C@@]2(C)[C@@H]3CC[C@H]4C(C)(C)[C@@H](NC)CC[C@@]45C[C@@]35CC[C@]12C [cyclovirobuxin-d]				0.02667	0.06721	0.03318	−0.04158	0.04619	
CN(C)CCN1C(=O)c2cccc3cc(NC(N)=O)cc(c23)C1=O [UNBS-5162]				0.09148	0.09844	0.1623	−0.2029	−0.03433	DTIO Corr test ([2]; correlation of compound sensitivity with DetermaIO (DTIO); test set): 0.09148; DTIO Corr train ([2]; correlation of compound sensitivity with DetermaIO (DTIO); training set): 0.09844
Cc1nc(-c2cccnc2)sc1C(=O)Nc1ccccc1-c1cn2c(CN3CCOCC3)csc2n1 [SRT2104]				−0.05596	−0.07665	−0.05657	0.06965	−0.08685	TNBCType train [1, 16]: MSL
C=C1CC[C@H](O)C/C1=C/C=C1\CCC[C@]2(C)[C@@H]([C@H](C)CC[C@@H](O)C(C)(C)O)CC[C@@H]12 [secalciferol]	−0.1254	0.07866	−0.05502	−0.09515	−0.06151				
CCN(CC)CCCC(C)Nc1nc(C)cc(Nc2ccc3nc(C)cc(N)c3c2)n1 (stereo not shown) [NSC-23766]	−0.00484	−0.06657	0.1332	0.048	0.0675				
CCCCCCCC/C=C\CCCCCCCC(=O)NCCc1ccc(O)c(O)c1 [OLDA]	0.0783	−0.1742	−0.06733						TNBCType train ([1]; subtype (IM, MSL or M) the PRISM compound sensitivity is associated with, training cell set (371 cell lines)): MSL; DTIO Corr test ([2]; correlation of PRISM compound sensitivity with DTIO; test cell set (188 cell lines)): 0.08614; DTIO Corr train ([2]; correlation of PRISM compound sensitivity with DTIO; training cell set (371 cell lines)): 0.09584
CC(=O)Nc1ccc(Cc2ccc(NC(C)=O)cc2)cc1 [FH1]				−0.06073	−0.08253	−0.11	0.01237	−0.1426	
C=CC(=O)Nc1cccc(Nc2nc(Nc3ccc(Oc4ccnc(C(=O)NC)c4)cc3)ncc2F)c1 [CNX-774]				0.1389	0.07802	0.09358	−0.09506	0.02463	
c1cc2c(cc1C1CCCCC1)c1c3n2CCNC3CCC1 (stereo not shown) [tetrindole]	−0.02376	0.06046	0.06072	−0.04907	−0.09692				
COc1ccc(CN2C(=O)C(=O)c3cc(OC(F)(F)F)ccc32)cc1 [VU0238429]				−0.02333	−0.07773	0.04415	−0.1868	−0.1511	
CCNCCCNCCCCNCCCNCC [1,12-Besm]	−0.00575	−0.0837	−0.1322	0.02016	0.07515				
Cc1cc(-c2cc(O)ccc2Cl)cc2nnc(Nc3ccc(OCCN4CCCC4)cc3)nc12 [TG-100572]	0.01392	−0.05751	−0.04088	0.03221	0.09048				TNBCType train [1, 6]: MSL
COc1ccc2nc3c(c(N)c2c1)CCCC3 [7-methoxytacrine]				0.06329	−0.03204	−0.03879	−0.03683	−0.06604	TNBCType train [1, 16]: MSL
COc1ccc(C2CNC(=O)NC2)cc1O[C@H]1C[C@@H]2CC[C@H]1C2 [atizoram]	−0.0276	0.01206	−0.09365						TNBCType train ([1]; subtype (IM, MSL or M) assigned to the compound by negative correlation of PRISM sensitivity with subtype, training cell set (371 cell lines)): MSL; DTIO Corr test [2, 12]: 0.000749; DTIO Corr train [2, 13]: −0.04268
C[CH2][Hg][S]c1ccccc1C(=O)[O-].[Na+] [thiomersal]	0.1417	−0.2551	−0.1237						DTIO Corr test [2, 12]: 0.0287; DTIO Corr train [2, 13]: −0.05708; DTIO Corr test [2, 14]: 0.0287; DTIO Corr train [2, 15]: −0.05708
C=C1C[C@@H]2[C@H](CC[C@]3(C)C(=O)CC[C@@H]23)[C@@]2(C)C=CC(=O)C=C12 [exemestane]									IM Corr test [1]: 0.07921; M Corr test [1]: −0.1056; MSL Corr test [1]: −0.04525; DTIO Corr test [2]: 0.03291; DTIO Corr train [2]: 0.03081
C#Cc1cccc(Nc2ncnc3cc(OCCOC)c(OCCO)cc23)c1 [OSI-420]	−0.01776	0.1416	0.3027						DTIO Corr test [2, 12]: 0.1184; DTIO Corr train [2, 13]: −0.1185

— patent US20250140406A1, “CLASSIFYING TUMORS AND PREDICTING RESPONSIVENESS” (Oncocyte Corporation, priority 2022, published 2025)
